Patent US20100286283A1, “MICROTUBULE-DISRUPTNG AGENT AND CANCER CELL PROLIFERATION INHIBITOR CONTAINING THE SAME” (priority 2007, published 2010)

Columns and labels:
[1] = tested on: tubulins; experiment: Tubulin binding experiment, comigration in SDS-PAGE; details: for influence on comigration of NBD-PZ-CO—CH═CH—(CH2)5—CH3 with tubulins: compound coexisting with the probe
Method: Tubulins and a fluorescence dye, NBD-PZ or NBD-PZ-CO—CH═CH—(CH2)5—CH3 were reacted and electrophoresis (SDS-PAGE) was then performed. Binding with the tubulins was determined with comigration (fluorescence derived from NBD-PZ was detected with tubulins).

[2] = tested on: tubulins; experiment: Tubulin polymerization experiment, absorbance at 340 nm; assay type: biochemical; details: 20 μM tubulins
Method: Polymerization of 20 μM of tubulins was evaluated by measuring an absorbance at a wavelength of 340 nm.
Along with gradually polymerizing tubulins in a polymerization solution (80 mM PIPES, pH 6.9, 2 mM MgCl2, 0.5 mM EGTA, 5% glycerol and 1 mM GTP), an absorbance of the solution at a wavelength of 340 nm increases. The absorbance (340 nm) was measured in every 5 minutes to thus evaluate an influence given to the polymerization.

[3] = tested on: HGC-27 cells; experiment: Viable cell ratio of HGC-27 cells, CellTiter96 cell proliferation assay; assay type: cell-based; details: 0 to 40 μM, 24 hours
Method: 1×10^4 gastric cancer cells (HGC-27 cells) were seeded in 96-well plates, and incubated with CH3—CO—CH═CH—(CH2)4—CH3, CH3—CO—(CH2)6—CH3 or CH3—CH2—CH═CH—(CH2)4—CH3 (0 to 40 μM) for 24 hours from the next day. Cell viability was evaluated in a coloring method using CellTiter96 cell proliferation assay (Promega Co., Madison, Wis.), and an absorbance was measured. In this assay, living cells develop color with a reagent, and as the number of living cells is larger, the absorbance is higher. The viable cell ratio was calculated by (absorbance at each addition concentration)/(absorbance at 0 μM). Therefore, the viable cell ratio was 1.0 on the basis of 0 μM.

[4] = tested on: HGC-27 cells; experiment: Immunostaining of actin and tubulins in gastric cancer cells; assay type: cell-based; details: 40 μM, 6 hours
Method: Gastric cancer cells (HGC-27 cells) were incubated with 6-shogaol at 2 μg/ml for 6 hours and then fixed, and actin was fluorescent-stained with Alexa Fluor phalloidin (Molecular Probes Inc., Eugene, Oreg.), and tubulins were fluorescent-stained with an anti-tubulin β antibody (Lab Vision Co., Fremont, Calif.) and Alexa Fluor 488 labeled second antibody (Molecular Probes, Inc.).
Gastric cancer cells (HGC-27 cells) were incubated with CH3—CO—CH═CH—(CH2)4—CH3, CH3—CO—(CH2)6—CH3 or CH3—CH2—CH═CH—(CH2)4—CH3 (40 μM) for 6 hours and then fixed, and tubulins were fluorescent-stained with anti-tubulin β antibody (Lab Vision Co., Fremont, Calif.) and Alexa Fluor 488 labeling second antibody (Molecular Probes, Inc.).

[5] = tested on: gastric cancer cells (HGC-27 cells, AGS cells, and KATO III cells); experiment: Cell viability of gastric cancer cells, Cell Titer 96 cell proliferation assay; assay type: cell-based; details: 0 to 4 μg/ml, 24 hours, HGC-27, AGS
Method: 1×10^4 gastric cancer cells (HGC-27 cells, AGS cells, and KATO III cells) were seeded in 96 well-plates, and incubated with 6-shogaol (0 to 4 μg/ml) for 24 hours from the next day. Viability of the cells was evaluated in a coloring method using Cell Titer 96 cell proliferation assay (Promega Co., Madison, Wis.), and an absorbance was measured. In this assay, living cells develop color with a reagent, and as the number of living cells is larger, the absorbance is higher. The cell viability was calculated by (absorbance at each addition concentration of 6-shogaol)/(absorbance at 0 μg/ml). Therefore, the viable cell ratio was 1.0 on the basis of 0 μg/ml. 6-shogaol was purchased from Wako Pure Chemical Industries, Ltd. (Osaka, Japan) (purity of 98% or more). Each gastric cancer cell was available from the cell bank in RIKEN BioResource Center (RIKEN BRC cell bank) or ATCC (American Type Culture Collection).

[6] = tested on: gastric cancer cells (HGC-27 cells); experiment: Effect on tumor of gastric cancer cells transplanted to a nude mouse; assay type: in vivo; details: 400 μl at 0 to 200 μg/ml into the abdominal cavity for 8 days; HGC-27 subcutaneous tumor
Method: 2.5×10^6 gastric cancer cells (HGC-27 cells) were subcutaneously inoculated into the flank of a nude mouse (7-week-old, purchased from Japan SLC, Inc.). After 3 weeks when the tumors had reached an average volume of approximately 40 mm^3, and then 400 μl of 6-shogaol at 0 to 200 μg/ml was administered into the abdominal cavity for 8 days. The tumor volume was measured before the first administration of 6-shogaol and after one day from the eighth administration. Comparing volumes of the tumor before and after administration of 6-shogaol, its magnification was evaluated as a growth ratio of the tumor.

[7] = tested on: various cancer cells (HGC-27 cells, AGS cells, KATO III cells, Jurkat cells, A549 cells, and SW620 cells); experiment: Viability (ED50) of various cancer cells; assay type: cell-based; details: 24 hours culture
Method: (§1) ED50: concentration of 6-shogaol, which decreases the cell viability to 0.5 (50%) as compared with the control.
(§2) ED50 of 6-shogaol was examined on various cancer cells (HGC-27 cells, AGS cells, KATO III cells, Jurkat cells, A549 cells, and SW620 cells) to evaluate whether or not 6-shogaol was also effective for cancer cells other than gastric cancer cells. The culturing time was set to 24 hours.

[8] = tested on: SH groups contained in tubulins; experiment: Quantification of SH groups of tubulin, Ellman method; assay type: biochemical; details: tubulins 2 μM, 100 μM of 6-shogaol
Method: SH groups contained in tubulins are converted to 5,5′-dithiobis-nitrobenzoic acid into thionitrobenzoate, and an absorbance of the solution at a wavelength of 412 nm (Ellman reaction) increases. The absorbance (412 nm) was measured to evaluate an influence given to an amount of SH groups.
An α,β-unsaturated carbonyl compound having a larger molecular weight reacted with more SH groups in the tubulins, and as a result, the amount of the SH groups was decreased and the absorbance (412 nm) was lowered (FIG. 8).

[9] = tested on: A549 cells; experiment: Viability (ED50) of A549 cells; assay type: cell-based; details: 24 hours culture
Method: as §1, §2

[10] = tested on: HGC-27 cells; experiment: Influence on cell cycle, BrdU flow cytometry; assay type: cell-based; details: 2 μg/ml, 18 hours
Method: 2×10^5 gastric cancer cells (HGC-27 cells) were seeded in 12-well plates and incubated in the presence of 6-shogaol at 2 μg/ml for 18 hours from the next day, and then, further incubated in the presence of 10 μM of BrdU for 2 hours. In order to measure intake of BrdU in nuclei and DNA amounts in the nucleus, the cells were stained using a BrdU flow kit (BD Pharmingen, Inc., San Diego, Calif.). 10000 cells were analyzed with the flow cytometer manufactured by Beckman Coulter, Inc. (Fullerton, Calif.). The cells containing a large amount of DNA and a small amount of BrdU were considered to be in G2-M phase.

influence on comigration of NBD-PZ-CO—CH═CH—(CH2)5—CH3 with tubulins [1]	Structure (SMILES)	polymerization of tubulins ([2]; 500 μM compound)	viable cell ratio [3]	reticulate distribution of tubulins (structure of microtubule) [4]	also measured
did not give an influence on comigration	CCCCC[C@H](O)CC(=O)CCc1ccc(O)c(OC)c1 [6-gingerol]				
	CCCCCC=CC(C)=O [CH3—CO—CH═CH—(CH2)4—CH3]	inhibited polymerization of tubulins	decreased the viable cell ratio	inhibited a reticulate distribution of tubulins	polymerization of tubulins ([2]; 250 μM compound): inhibited polymerization of tubulins
	CCCCCCC=CC(=O)N1CCN(c2ccc([N+](=O)[O-])c3nonc23)CC1 [NBD-PZ-CO—CH═CH—(CH2)5—CH3]				binding with tubulins (comigration) ([1]; probe reacted with tubulins, SDS-PAGE): comigrated with the tubulins
	CCCCCCCC(C)=O [CH3—CO—(CH2)6—CH3]	gave no influence	only CH3—CO—CH═CH—(CH2)4—CH3 (∘) decreased the viable cell ratio	only CH3—CO—CH═CH—(CH2)4—CH3 inhibited a reticulate distribution of tubulins	
	CCC=CCCCCC [CH3—CH2—CH═CH—(CH2)4—CH3]	gave no influence	only CH3—CO—CH═CH—(CH2)4—CH3 (∘) decreased the viable cell ratio	only CH3—CO—CH═CH—(CH2)4—CH3 inhibited a reticulate distribution of tubulins	
the comigration was inhibited	CCCCC/C=C/C(=O)CCc1ccc(O)c(OC)c1 [6-shogaol]				cell viability [5]: decreased the cell viability; growth ratio of tumor [6]: the growth of the tumor was inhibited; viability of various cancer cells [7]: decreased the viability; amount of SH groups contained in the tubulins [8]: approximately the same effect as 500 μM of CH3—CO—CH═CH—(CH2)5—CH3; susceptibility to 6-shogaol compared with the other cancer cells [9]: low; ratio of cells in G2-M stage [10]: significantly increased
